This is an account of results in US5508277A, “Bicyclic pyrimidines” (Adir Et Compagnie, priority 1992, dated 1996).

In assay [1] the test system is P388/VCR (murine leukaemia resistant to vincristine). The assay can be described thus: Increase in the anti-tumour activity of vincristine in vivo, compounds administered p.o. More on the design: species or system mice (female B6D2F1). Conditions: 100 mg/kg p.o., days 1, 2, 3 and 4; + vincristine 0.25 mg/kg i.p. The source says:
(§1) The sensitive parent line P388 (murine leukaemia) and the sub-line resistant to vincristine, P388/VCR, were supplied by NCI (Frederick, USA). The tumour cells (10^6 cells) were inoculated on day 0 into the intraperitoneal cavity of female B6D2F1 mice (Iffa Credo, France) weighing from 18 to 20 g (groups of 8 to 10 animals). In the case of i.p. administration of the compounds to be tested, the animals received on days 1, 5 and 9:
In the case of p.o. administration of the compounds to be tested, the animals received on days 1, 2, 3 and 4:
an administration by the oral route of 100 mg/kg of the compound of the present invention to be tested, then
30 to 60 minutes later, an administration by the i.p. route of 0.25 mg/kg of vincristine.
The anti-tumour activity is expressed as follows: [formula]
The activity of the reversing compound is expressed as T/V: [formula]

The test system of a further assay is DC-3F/AD cells. The assay can be described thus: Cytotoxicity of actinomycin D, reversal of MDR (reversion factor), Microculture Tetrazolium Assay. Conditions: compound at 5 μM, with actinomycin D, 4 days. Format: cell-based, Chinese hamster. As to the method: Two resistant cell lines were used:
The cells are distributed on microplates and exposed to the cytotoxic compound (actinomycin D or adriamycin) at 9 concentrations (2 by 2 series dilutions). The compounds tested for their capacity to reverse MDR are added at the same time as the cytotoxic agent. The cells are then incubated for 4 days. […] The results are expressed as a reversion factor (RF): [formula]

Assay [2] has as its system P388/VCR (murine leukaemia resistant to vincristine). The assay is described as follows: Increase in the anti-tumour activity of vincristine in vivo, compounds administered i.p. On the set-up: species or system mice (female B6D2F1). The conditions noted are these: for increase in anti-tumour activity of vincristine (in words): administered i.p., resistant tumour. As to the method:
as §1, with “9: administration by the i.p. route of 25, 50 or 75 mg/kg of the compound of the present invention to be tested, then 30 to 60 minutes later, an administration by the i.p. route of 0.50 mg/kg of vincristine (used as a reference anti-tumour agent). The anti-tumour activity is expressed as follows: [formula] The activity of the reversing compound is expressed as T/V: [formula]” for “9:”

Setting [3] is: 25 mg/kg i.p., days 1, 5 and 9, + vincristine 0.50 mg/kg i.p.
Setting [4] is: 50 mg/kg i.p., days 1, 5 and 9, + vincristine 0.50 mg/kg i.p.
The mark [5] stands for this setting: 75 mg/kg i.p., days 1, 5 and 9, + vincristine 0.50 mg/kg i.p.
Where [6] appears, read: VCR only, 0.50 mg/kg i.p., no compound.

As for `C=CCNc1nc(N2CCC(NC3c4ccccc4N(C)S(=O)(=O)c4cc(Cl)ccc43)CC2)nc2c1ncn2CC=C` (single isomer, unassigned) [Example 15, (+)--(R)-- or --(S)-9-allyl-6-allylamino-2-{4-[(3-chloro-6-methyl-5,5-dioxo-6,11-dihydrodibenzo[c,f][1,2]thiazepin-11-yl)amino]piperidino)purine], the T/C in assay [1] worked out at 157.

On to `C=CCNc1nc(N2CCC(NCC3c4ccccc4CCc4ccccc43)CC2)nc2c1ncn2CC=C` [Example 1, 9-allyl-6-allylamino-2-{4-[(10,11-dihydro-5H-dibenzo-[a,d]cyclohepten-5-yl)methylamino]piperidino}purine], for which, in the assay on DC-3F/AD cells, the “REVERSION FACTOR 5 μM DC-3F/AD” value amounted to 5173. Moreover, the T/C % was determined as 215% in assay [2] (setting [3]), 239% in assay [2] (setting [4]) and 176% in assay [2] (setting [5]). In addition, the values for the T/V in assay [2] (setting [3]), in assay [2] (setting [4]) and in assay [2] (setting [5]) were 1.54, 1.71 and 1.26, respectively. The “increase in anti-tumour activity of vincristine (in words)” value in assay [2] was “substantially increase the anti-tumour activity of vincristine against a resistant tumour”. Besides, the T/C in assay [1] came to 209.

For `C=CCNc1nc(N2CCC(NCC3c4ccccc4CCc4ccccc43)CC2)c2ncn(CC=C)c2n1` [Example 2, 9-allyl-2-allylamino-6-{4-[(10,11-dihydro-5H-dibenzo-[a,d]cyclohepten-5-yl)methylamino]piperidino}purine], the “REVERSION FACTOR 5 μM DC-3F/AD” value in the assay on DC-3F/AD cells is 3368. For the same compound, the T/C % in assay [2] (setting [3]) worked out at 192%; in assay [2] (setting [4]), 224%; in assay [2] (setting [5]), 235%. Moreover, the figures for the T/V in assay [2] (setting [3]), in assay [2] (setting [4]) and in assay [2] (setting [5]) were 1.37, 1.60 and 1.68, respectively. Further, the “increase in anti-tumour activity of vincristine (in words)” value in assay [2] is reported as “substantially increase the anti-tumour activity of vincristine against a resistant tumour”. The T/C in assay [1] is reported as 172.

As for `C=CCNc1nc(N2CCC(NCC(c3ccc(F)cc3)c3ccc(F)cc3)CC2)nc2c1ncn2CC=C` [Example 3, 9-allyl-6-allylamino-2-{4-[2,2-bis(4-fluorophenyl)-ethylamino]piperidino}purine], the T/C in assay [1] is recorded as 203.

In the case of `C=CCNc1nc(N2CCC(NCC3c4ccccc4COc4ccccc43)CC2)nc2c1ncn2CC=C` (stereo not shown) [Example 5, 9-allyl-6-allylamino-2-{4-[(6,11-dihydrodibenzo[b,e]-oxepin-11-yl)methylamino]piperidino}purine], the T/C in assay [1] is 196.

`C=CCNc1nc(N2CCC(NCC3c4ccccc4C=Cc4ccccc43)CC2)nc2c1ncn2CC=C` [Example 6, 9-allyl-6-allylamino-2-{4-[(5H-dibenzo[a,d]cyclohepten-5-yl)methylamino]piperidino}purine]: the T/C in assay [1] was 188.

Consider `C=CCNc1nc(N2CCC(NCC3c4ccccc4CCc4ccccc43)CC2)nc2c1cnn2CC=C` [Example 9, 1-allyl-4-allylamino-6-{4-[(10,11-dihydro-5H-dibenzo[a,d]cyclohepten-5-yl)methylamino]piperidino}pyrazolo[3,4-d]pyrimidine], for which the T/C in assay [1] turned out to be 161.

With `C=CCNc1nc(N2CCC(NCC(c3ccccc3)c3ccccc3)CC2)nc2c1ncn2CC=C` [Example 12, 9-allyl-6-allylamino-2-{4-[(2,2-diphenylethyl)amino]piperidino}purine], the T/C in assay [1] stood at 192.

For `C=CCNc1nc(N2CCC(NCC3c4ccccc4CCc4cc(OC)ccc43)CC2)nc2c1ncn2CC=C` (stereo not shown) [Example 14, 9-allyl-6-allylamino-2-{4-[(2-methoxy-10,11-dihydro-5H-dibenzo[a,d]cyclohepten-5-yl)methylamino]piperidino}purine], in assay [1], the T/C is 202.

For `CC[C@]1(O)C[C@H]2CN(CCc3c([nH]c4ccccc34)[C@@](C(=O)OC)(c3cc4c(cc3OC)N(C=O)[C@H]3[C@@](O)(C(=O)OC)[C@H](OC(C)=O)[C@]5(CC)C=CCN6CC[C@]43[C@@H]65)C2)C1` [VCR, vincristine, reference compound], in assay [2] (setting [6]), the T/C % was 140% and the T/V was found to be 1.

With `COc1ccc(CCN(C)CCCC(C#N)(c2ccc(OC)c(OC)c2)C(C)C)cc1OC` (stereo not shown) [verapamil, reference compound], the “REVERSION FACTOR 5 μM DC-3F/AD” value in the assay on DC-3F/AD cells stood at 3.
